Results from ChEMBL document CHEMBL1130852, “In vitro evaluation and crystallographic analysis of a new class of selective, non-amide-based thrombin inhibitors” (Bioorg Med Chem Lett, 1998).
Where “and” joins values, the source holds several entries; their conditions need not be identical. Identical values can stand only once. Values belong to the molecule of their own block, whether it stands above or below them.

Columns and labels:
[1] = molecular target: Urokinase-type plasminogen activator (Homo sapiens, UniProt P00749); experiment: (§1) Compound was tested in vitro for its ability to inhibit serine protease urokinase using carbobenzyloxy-Phe-Val-Arg-p-nitroanilide as substrate
[2] = Compound was tested in vitro for its ability to inhibit serine protease elastase using suc-Ala-Ala-Pro-Val-p-nitroanilide as substrate
Prothrombin = Prothrombin (Homo sapiens, UniProt P00734); experiment: Compound was tested in vitro for its ability to inhibit serine protease thrombin using […] as substrate
Plasminogen = Plasminogen (Homo sapiens, UniProt P00747); experiment: Compound was tested in vitro for its ability to inhibit serine protease plasmin using tosyl-Gly-Pro-Lys-p-nitroanilide as substrate
Coagulation factor X = Coagulation factor X (Homo sapiens, UniProt P00742); experiment: Compound was tested in vitro for its ability to inhibit serine protease factor Xa using benzoyl-Ile-Glu-Gly-Arg-p-nitroanilide as substrate
[3] = system: CC(C)[C@H](NC(=O)[C@H](Cc1ccccc1)NC(=O)OCc1ccccc1)C(=O)N[C@@H](CCCN=C(N)N)C(=O)Nc1ccc([N+](=O)[O-])cc1; experiment: as §1
[4] = compound: C[C@H](NC(=O)CCC(=O)O)C(=O)N[C@@H](C)C(=O)N1CCC[C@H]1C(=O)N[C@@H](Cc1ccccc1)C(=O)Nc1ccc([N+](=O)[O-])cc1; experiment: Compound was tested in vitro for its ability to inhibit serine protease Chymotrypsinogen using suc-Ala-Ala-Pro-Phe-p-nitroanilide as substrate
[5] = compound: CC(C)[C@H](NC(=O)[C@H](Cc1ccccc1)NC(=O)c1ccccc1)C(=O)N[C@@H](CCCN=C(N)N)C(=O)Nc1ccc([N+](=O)[O-])cc1; experiment: Compound was tested in vitro for its ability to inhibit serine protease trypsin using benzoyl-Phe-Val-Arg-p-nitroanilide as substrate; conditions: Bos taurus

Plasminogen, sequence (P00747 97-580 limits assumed): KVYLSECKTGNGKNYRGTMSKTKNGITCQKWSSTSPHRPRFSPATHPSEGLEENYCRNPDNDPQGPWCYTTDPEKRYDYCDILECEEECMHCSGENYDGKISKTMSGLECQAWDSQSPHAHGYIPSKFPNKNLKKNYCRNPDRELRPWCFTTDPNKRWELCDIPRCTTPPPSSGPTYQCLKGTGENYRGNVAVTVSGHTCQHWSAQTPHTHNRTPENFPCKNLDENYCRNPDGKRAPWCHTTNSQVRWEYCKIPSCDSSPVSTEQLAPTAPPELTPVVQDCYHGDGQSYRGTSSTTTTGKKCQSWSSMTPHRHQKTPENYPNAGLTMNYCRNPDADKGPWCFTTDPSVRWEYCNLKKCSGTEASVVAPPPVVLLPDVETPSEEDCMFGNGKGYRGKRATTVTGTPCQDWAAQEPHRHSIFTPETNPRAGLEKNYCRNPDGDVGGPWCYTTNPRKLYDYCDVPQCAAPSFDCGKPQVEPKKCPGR
Plasminogen, sequence (P00747 581-810 limits assumed): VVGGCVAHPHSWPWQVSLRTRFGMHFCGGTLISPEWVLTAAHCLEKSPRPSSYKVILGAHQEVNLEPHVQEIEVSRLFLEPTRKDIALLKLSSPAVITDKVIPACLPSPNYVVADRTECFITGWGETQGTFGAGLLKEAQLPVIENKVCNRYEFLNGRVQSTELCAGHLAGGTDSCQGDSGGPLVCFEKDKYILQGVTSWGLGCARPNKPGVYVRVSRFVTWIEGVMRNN
Coagulation factor X, sequence (P00742 41-179 limits assumed): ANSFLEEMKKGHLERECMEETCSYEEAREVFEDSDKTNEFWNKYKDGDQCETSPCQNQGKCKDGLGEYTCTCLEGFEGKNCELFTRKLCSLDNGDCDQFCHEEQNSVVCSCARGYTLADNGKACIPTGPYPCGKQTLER
Coagulation factor X, sequence (P00742 235-488 limits assumed): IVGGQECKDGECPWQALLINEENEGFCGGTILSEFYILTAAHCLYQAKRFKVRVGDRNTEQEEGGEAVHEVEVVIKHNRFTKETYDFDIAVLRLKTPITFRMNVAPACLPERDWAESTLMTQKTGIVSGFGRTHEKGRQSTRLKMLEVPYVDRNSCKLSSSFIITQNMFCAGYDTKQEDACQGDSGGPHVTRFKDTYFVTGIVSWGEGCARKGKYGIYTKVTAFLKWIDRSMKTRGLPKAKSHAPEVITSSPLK

Ki [1]: > 200 µM
Ki [2]: > 200 µM
Ki (Prothrombin): 0.0046 µM
Ki (Plasminogen): > 200 µM
Ki (Coagulation factor X): 80 µM
Molecule: Cc1cc(OCC2CCN(C(=N)N)CC2)cc(OS(=O)(=O)c2ccccc2Cl)c1

Ki [1]: > 200 µM
Ki [2]: > 200 µM
Ki (Prothrombin): 0.32 µM
Ki (Plasminogen): > 200 µM
Ki (Coagulation factor X): 29 µM
Molecule: Cc1cc(OCC2CCCN(C(=N)N)C2)cc(OS(=O)(=O)c2ccccc2Cl)c1 (stereo unspecified)

Ki [1]: > 200 µM
Ki [2]: > 200 µM
Ki (Prothrombin): 0.033 µM
Ki (Plasminogen): > 200 µM
Ki (Coagulation factor X): > 200 µM
Molecule: Cc1cc(OCCCN=C(N)N)cc(OS(=O)(=O)c2ccccc2Cl)c1

Ki [1]: > 200 µM
Ki [2]: > 200 µM
Ki (Plasminogen): > 200 µM
Ki (Coagulation factor X): 160 µM
Molecule: Cc1cc(OCCN(C)c2ccncc2)cc(OS(=O)(=O)c2ccccc2Cl)c1

Ki [1]: > 200 µM
Ki [2]: > 200 µM
Ki (Plasminogen): > 200 µM
Ki (Coagulation factor X): 110 µM
Molecule: Cc1cc(OCCCCN=C(N)N)cc(OS(=O)(=O)c2ccccc2Cl)c1

Molecule: Urokinase-type plasminogen activator (Homo sapiens) (from UniProt P00749)
Km [3]: 190 µM and 170 µM

Ki [1]: > 200 µM
Ki [2]: > 200 µM
Ki (Prothrombin): 0.26 µM
Ki (Plasminogen): > 200 µM
Ki (Coagulation factor X): 120 µM
Molecule: Cc1cc(OCCCCCN=C(N)N)cc(OS(=O)(=O)c2ccccc2Cl)c1

B1: Chymotrypsin-C (Homo sapiens), Q99895 (protein)
chain: MLGITVLAALLACASSCGVPSFPPNLSARVVGGEDARPHSWPWQISLQYLKNDTWRHTCGGTLIASNFVLTAAHCISNTRTYRVAVGKNNLEVEDEEGSLFVGVDTIHVHKRWNALLLRNDIALIKLAEHVELSDTIQVACLPEKDSLLPKDYPCYVTGWGRLWTNGPIADKLQQGLQPVVDHATCSRIDWWGFRVKKTMVCAGGDGVISACNGDSGGPLNCQLENGSWEVFGIVSFGSRRGCNTRKKPVVYTRVSAYIDWINEKMQL
Km [4]: 60 µM and 100 µM

B2: Serine protease 1 (Bos taurus), P00760 (protein)
chain: MKTFIFLALLGAAVAFPVDDDDKIVGGYTCGANTVPYQVSLNSGYHFCGGSLINSQWVVSAAHCYKSGIQVRLGEDNINVVEGNEQFISASKSIVHPSYNSNTLNNDIMLIKLKSAASLNSRVASISLPTSCASAGTQCLISGWGNTKSSGTSYPDVLKCLKAPILSDSSCKSAYPGQITSNMFCAGYLEGGKDSCQGDSGGPVVCSGKLQGIVSWGSGCAQKNKPGVYTKVCNYVSWIKQTIASN
Km [5]: 160 µM and 100 µM
